Reference: patent US7449473B2, “Substituted pyrrolo[3,2-d]pyrimidin-2,4-diones as A2b adenosine receptor antagonists” (CV Therapeutics, Inc., priority 2003, dated 2008)

The compounds below were run against T1, Human A2B adenosine receptor (Homo sapiens, UniProt P29275) (assay: Radioligand binding for A2B adenosine receptor (3H-ZM241385 competition, HEK-A2B membranes)). Conditions: competition with 10 nM 3H-ZM241385, HEK-A2B cell membranes.
T1 construct: expressed in transfected cells; host or cells: HEK-293 (HEK-A2B), membrane preparation
T1 sequence (P29275 1-332): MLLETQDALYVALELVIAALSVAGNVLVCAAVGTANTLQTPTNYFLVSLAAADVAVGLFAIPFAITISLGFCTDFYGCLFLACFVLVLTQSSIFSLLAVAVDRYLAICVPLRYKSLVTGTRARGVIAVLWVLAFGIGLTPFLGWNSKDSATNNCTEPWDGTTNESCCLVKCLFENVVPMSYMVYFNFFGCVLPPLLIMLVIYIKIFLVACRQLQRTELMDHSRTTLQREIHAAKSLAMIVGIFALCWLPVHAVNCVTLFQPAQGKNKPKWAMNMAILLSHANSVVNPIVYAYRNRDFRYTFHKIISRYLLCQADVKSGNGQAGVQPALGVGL
Method: Radioligand Binding for A2B Adenosine Receptor.
Human A2B adenosine receptor cDNA was stably transfected into HEK-293 cells (referred to as HEK-A2B cells). Monolayer of HEK-A2B cells were washed with PBS once and harvested in a buffer containing 10 mM HEPES (pH 7.4), 10 mM EDTA and protease inhibitors. These cells were homogenized in polytron for 1 minute at setting 4 and centrifuged at 29000 g for 15 minutes at 4° C. The cell pellets were washed once with a buffer containing 10 mM HEPES (pH7.4), 1 mM EDTA and protease inhibitors, and were resuspended in the same buffer supplemented with 10% sucrose. Frozen aliquots were kept at −80° C. Competition assays were started by mixing 10 nM ^3H-ZM241385 (Tocris Cookson) with various concentrations of test compounds and 50 μg membrane proteins in TE buffer (50 mM Tris and 1 mM EDTA) supplemented with 1 Unit/mL adenosine deaminase. The assays were incubated for 90 minutes, stopped by filtration using Packard Harvester and washed four times with ice-cold TM buffer (10 mM Tris, 1 mM MgCl2, pH 7.4). Non specific binding was determined in the presence of 10 μM ZM241385. The affinities of compounds (i.e. Ki values) were calculated using GraphPad software.

Ki [nM]	SMILES
129	CCCn1c(=O)c2c(cc(-c3ccccn3)n2O)n(CCC)c1=O [1,3-dipropyl-8-(pyridin-2-yl)-7-hydroxy-1H-pyrrolo[3,2-d]pyrimidine-2,6-dione]
26	CCCn1c(=O)c2[nH]c(-c3cnn(Cc4ccccc4)c3)cc2n(CCC)c1=O [6-[1-benzylpyrazol-4-yl]-1,3-dipropyl-1,3-dihydropyrrolo[3,2-d]pyrimidine-2,4-dione]
9	CCCn1c(=O)c2c(cc(-c3cnn(Cc4cccc(C(F)(F)F)c4)c3)n2O)n(CCC)c1=O [8-(1-(3-(trifluoromethyl)benzyl)-1H-pyrazol-4-yl)-7-hydroxy-1,3-dipropyl-1H-pyrrolo[3,2-d]pyrimidine-2,6-dione]
13	CCCn1c(=O)c2[nH]c(-c3cnn(Cc4cccc(F)c4)c3)cc2n(CCC)c1=O [8-(1-(3-fluorobenzyl)-1H-pyrazol-4-yl)-1,3-dipropyl-1H-pyrrolo[3,2-d]pyrimidine-2,6-dione]
120	CCCn1c(=O)c2c(cc(-c3cnn(Cc4ccccc4)c3)n2O)n(CCC)c1=O [8-(1-benzyl-1H-pyrazol-4-yl)-7-hydroxy-1,3-dipropyl-1H-pyrrolo[3,2-d]pyrimidine-2,6-dione]
544	CCCn1c(=O)c2[nH]c(-c3cc[n+]([O-])cc3)cc2n(CCC)c1=O [8-(N-oxypyridin-4-yl)-1,3-dipropyl-1H-pyrrolo[3,2-d]pyrimidine-2,6-dione]
12	CCCn1c(=O)c2c(cc(-c3ccncc3)n2O)n(CCC)c1=O [8-(pyridin-4-yl)-7-hydroxy-1,3-dipropyl-1H-pyrrolo[3,2-d]pyrimidine-2,6-dione]
